Consider three molecules from patent US20100086602A1, “PHARMACEUTICAL COMPOSITION CONTAINING STATIN-ENCAPSULATED NANOPARTICLE” (priority 2006, published 2010).

“Also recorded” adds a separate entry of the source.

Data set [1] relates to muscular tissues of ischemic hindlimb. More on the design: species or system mice. Conditions: mouse, in vivo. The procedure:
(§1) Male C57BL/6J wild-type mice were bred and maintained in the Laboratory of Animal Experiments at Kyushu University. After anesthesia with an intraperitoneal injection of ketamine hydrochloride and xyladine hydrochloride, animals underwent surgical ligation and resection of the left femoral artery to produce unilateral hindlimb ischemia. […] As a control, a group of PLGA-FITC-mice (FITC group) received intramuscular injections of FITC-loaded PLGA nanoparticles (0.16 mg/100 μl), a group of PEG/CS-PLGA-FITC-mice (PEG/CS-FITC group) received intramuscular injections of FITC-loaded PEG/CS PLGA nanoparticles (0.16 mg/100 μl), and another group of mice (NT group) received no treatment.

Data set [2] in a line: Serological assessment 14 days after hindlimb ischemia. It counts as in vivo, mice. As to the method:
as §1
There were no difference between each group in the total cholesterol, triglyceride, myoglobin, CK, BUN and Cre values in serum.

Data set [3] deals with unilateral hindlimb ischemia. Nature of the data set: Laser Doppler perfusion imaging of limb blood flow after hindlimb ischemia. In kind it is in vivo, mice. Conditions: single intramuscular injection containing 0.01 mg statin (0.5 mg/kg), days 0, 3, 7 and 14, versus no-treatment. As to the method: (§2) A group of PLGA-Pit-mice (PLGA-Pit group) and a group of PEG/CS-PLGA-Pit-mice (PEG/CS-Pit group) received intramuscular injections of pitavastatin-loaded PLGA nanoparticles (0.18 mg/100 μl) and pitavastatin-loaded PEG/CS-PLGA nanoparticles (0.44 mg/100 μl, each containing 0.01 mg of pitavastatin), respectively. As control, a group of PLGA-mice (PLGA group) received intramuscular injections of PLGA nanoparticles (0.18 mg/100 μl) and another group of mice (NT group) received no treatment.

Data set [4] has as its system unilateral hindlimb ischemia. Nature of the data set: Capillary density by immunohistochemical staining with anti-mouse PECAM-1 (CD31) antibody. It counts as in vivo, mice. Conditions: day 14 after hindlimb ischemia; 0.01 mg statin intramuscular. The procedure:
as §2

Data set [5] has as its system unilateral hindlimb ischemia. Kind of data set: Arteriogenesis by immunohistochemical staining with α-SMA. It counts as in vivo, mice. Conditions: day 14 after hindlimb ischemia; 0.01 mg pitavastatin intramuscular. As to the method:
as §2
Arteriogenesis was determined by immunohistochemical staining with α-SMA.

In data set [6] the test system is hindlimb ischemia. Kind of data set: Recovery rate of ischemic tissues, pitavastatin dose comparison (FIG. 15). Conditions: intramuscular, one portion; only pitavastatin 0.4, 4 and 20 mg/kg or PLGA-pitavastatin; days 3, 7 and 14. In kind it is in vivo, mice. As to the method: The recovery rate of ischemic tissues were determined for ischemic mice injected intramuscularly with only nanoparticles, only pitavastatin (0.4, 4 and 20 mg/kg) or PLGA-pitavastatin in one portion.

The test system of data set [7] is hindlimb ischemia. Nature of the data set: Angiography 35 days after hindlimb ischemia (angiographic score). It counts as in vivo, Japanese rabbits. Conditions: Mean±SE; 35 days after ischemia, 28 days after intramuscular injection of 5 ml (0.33 mg/ml pitavastatin). The procedure: (§3) Japanese rabbits (2.7 to 3.2 kg) underwent surgical ligation and resection of the unilateral femoral artery to produce hindlimb ischemia. After 7 days, animals were randomized to four groups: PLGA-pitavastatin group, PLGA-FITC group, pitavastatin group and PBS group, and received therapeutic substances by intra-ischemic-muscular injection of 5 ml (concentration of pitavastatin-loaded nanoparticle 6 mg/ml, corresponding to 0.33 mg/ml of pitavastatin). After 28 days from intramuscular injection (35 days after ischemia), animals were performed angiography. Mice were inserted catheters (5 Fr) from right internal carotid artery and the catheters were placed in left internal iliac artery under fluoroscopic control. 0.25 mg of Millisrol were injected into artery through catheters, followed by injection of imaging agents at the rate of 1 ml/second for 5 seconds to perform angiography. An assessment for the number of blood vessel was carried out by using static images at 3 second after injection of imaging agents. 5 mm of grids were prepared within the range surrounded by lower end of femur (upper end), lower end of quadriceps (lower end), arteria iliaca interna (trunks are not counted, inner end) and distal portion of severed blood vessel (outer end). Angiographic score was calculated by dividing the number of grids in which blood vessel is found by total number of grids.

Data set [8] relates to hindlimb ischemia. Nature of the data set: Partial pressure ratio of oxygen in arterial and venous blood during muscular exercise of ischemic hindlimb. It counts as in vivo, Japanese rabbit. Conditions: 35 days after ischemia; exercise by electric stimulus for 30 minutes; 0, 15 and 30 minutes. The procedure:
as §3, with “0.25 mg of Millisrol were injected into artery through catheters, followed by injection of imaging agents at the rate of 1 ml/second for 5 seconds to perform angiography. An assessment for the number of blood vessel was carried out by using static images at 3 second after injection of imaging agents.” left out
The effect of nanostatin on insufficient blood from at ischemic hindlimb on muscular exercising is examined. […] The partial pressure ratio of oxygen in arterial and venous blood in each time point was determined. The concentration of hemoglobine was determined at 0 minute. […]

As for FITC, the “nanoparticles remaining in muscular tissues (fluorescence)” value in data set [1] is “nanoparticles remain in muscular tissues on day 7”.
Turning to `CC(C)c1c(C(=O)Nc2ccccc2)c(-c2ccccc2)c(-c2ccc(F)cc2)n1CC[C@@H](O)C[C@@H](O)CC(=O)O` [atorvastatin], in data set [2] (intramuscularly injected mice), the signs of rhabdomyolysis result is “Neither group of atorvastatin nor atorvastatin-loaded nanoparticle intramuscularly injected mice showed the signs of rhabdomyolysis”. In data set [2] (serum, n = 4), this molecule showed a BUN of 30.3 ± 2.8 mg/dL, a CK of 159.0 ± 37.7 IU/L, a Cre of 0.083 ± 0.009 mg/dL and a myoglobin of less than 10 ng/mL. Also, in data set [2] (serum, n = 4), the total cholesterol worked out at 66.0 ± 3.2 mg/dL and the triglyceride stood at 13.5 ± 1.8 mg/dL.
Turning to `O=C(O)C[C@H](O)C[C@H](O)/C=C/c1c(C2CC2)nc2ccccc2c1-c1ccc(F)cc1` [pitavastatin], the “limb blood flow at ischemic side (LDPI index, ratio of ischemic to normal limb)” value was “comparable to no-treatment group” in data set [3] and “no improvement of blood flow” in data set [3] (listed as Pit). Besides, the “capillary density, endothelial cells (CD31 positive cells)” value in data set [4] is on record as “comparable to no-treatment group”. Further, the “α-SMA positive vascular structure (arteriogenesis)” value in data set [5] was “comparable to no-treatment group”. In addition, the “recovery of ischemic tissues / angiogenesis (ratio of ischemic region to normal region)” value in the data set on hindlimb ischemia [6] was “does not result in angiogenesis; also recorded: No angiogenesis”. Further, the Angiographic score in the data set with hindlimb ischemia [7] was determined as 0.51±0.04. In the data set with hindlimb ischemia [8], the “partial pressure ratio of oxygen in arterial and venous blood during muscular exercise” value is “increases of partial pressure ratio of oxygen in arterial and venous blood were shown”.
